Reference: PubChem BioAssay (NCI)
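Assay format: 96-well plates, 48-hour exposure. Here, GI50 denotes the concentration required for 50% inhibition of growth. At the TGI there is no net growth.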

Legend:
Assay in all cases: NCI tumour cell line growth inhibition, 48 h
786-0 renal = test system: 786-0 renal
A549 NSCLC = test system: A549 NSCLC
ACHN renal = test system: ACHN renal
BT-549 breast = test system: BT-549 breast
CCRF-CEM leukemia = test system: CCRF-CEM leukemia
COLO 205 colon = test system: COLO 205 colon
DU-145 prostate = test system: DU-145 prostate
EKVX NSCLC = test system: EKVX NSCLC
HCC-2998 colon = test system: HCC-2998 colon
HCT-116 colon = test system: HCT-116 colon
HCT-15 colon = test system: HCT-15 colon
HL-60(TB) leukemia = test system: HL-60(TB) leukemia
HOP-62 NSCLC = test system: HOP-62 NSCLC
HOP-92 NSCLC = test system: HOP-92 NSCLC
HS 578T breast = test system: HS 578T breast
HT29 colon = test system: HT29 colon
IGROV1 ovarian = test system: IGROV1 ovarian
K-562 leukemia = test system: K-562 leukemia
KM12 colon = test system: KM12 colon
LOX IMVI melanoma = test system: LOX IMVI melanoma
M14 melanoma = test system: M14 melanoma
MALME-3M melanoma = test system: MALME-3M melanoma
MCF7 breast = test system: MCF7 breast
MDA-MB-231 breast = test system: MDA-MB-231 breast
MDA-MB-435 = test system: MDA-MB-435
MOLT-4 leukemia = test system: MOLT-4 leukemia
NCI-H226 lung = test system: NCI-H226 lung
NCI-H23 lung = test system: NCI-H23 lung
NCI-H522 lung = test system: NCI-H522 lung
NCI/ADR-RES ovarian = test system: NCI/ADR-RES ovarian
OVCAR-3 ovarian = test system: OVCAR-3 ovarian
OVCAR-4 ovarian = test system: OVCAR-4 ovarian
OVCAR-5 ovarian = test system: OVCAR-5 ovarian
OVCAR-8 ovarian = test system: OVCAR-8 ovarian
PC-3 prostate = test system: PC-3 prostate
RPMI-8226 leukemia = test system: RPMI-8226 leukemia
RXF 393 renal = test system: RXF 393 renal
SF-268 CNS = test system: SF-268 CNS
SF-295 CNS = test system: SF-295 CNS
SF-539 CNS = test system: SF-539 CNS
SK-MEL-2 melanoma = test system: SK-MEL-2 melanoma
SK-MEL-28 melanoma = test system: SK-MEL-28 melanoma
SK-MEL-5 melanoma = test system: SK-MEL-5 melanoma
SK-OV-3 ovarian = test system: SK-OV-3 ovarian
SN12C renal = test system: SN12C renal
SNB-19 CNS = test system: SNB-19 CNS
SNB-75 CNS = test system: SNB-75 CNS
SR leukemia = test system: SR leukemia
SW-620 colon = test system: SW-620 colon
T-47D breast = test system: T-47D breast
TK-10 renal = test system: TK-10 renal
U251 CNS = test system: U251 CNS
UACC-257 melanoma = test system: UACC-257 melanoma
UACC-62 melanoma = test system: UACC-62 melanoma
UO-31 renal = test system: UO-31 renal

Compound `Nc1nc2cc(-c3ccc4ncc(C(=O)N5CCOCC5)n4c3)ccc2o1` has a GI50 (786-0 renal) of 14.6 µM, a TGI (786-0 renal) greater than 100 µM and a GI50 (A549 NSCLC) of 4.86 µM. The TGI (A549 NSCLC) was greater than 100 µM, the GI50 (ACHN renal) was 4.28 µM and the TGI (ACHN renal) was greater than 100 µM. The GI50 (BT-549 breast) was 4.39 µM, the TGI (BT-549 breast) was 37.9 µM and the GI50 (CCRF-CEM leukemia) was 8.74 µM. For the same compound, the TGI (CCRF-CEM leukemia) was greater than 100 µM, the GI50 (COLO 205 colon) was 3.44 µM and the TGI (COLO 205 colon) was greater than 100 µM. It also gave a GI50 (DU-145 prostate) of 9.09 µM, a TGI (DU-145 prostate) greater than 100 µM and a GI50 (EKVX NSCLC) of 4.26 µM. For the same compound, the TGI (EKVX NSCLC) was greater than 100 µM, the GI50 (HCC-2998 colon) was 10 µM and the TGI (HCC-2998 colon) was greater than 100 µM. The GI50 (HCT-116 colon) was 4.4 µM, the TGI (HCT-116 colon) was greater than 100 µM and the GI50 (HCT-15 colon) was 5.4 µM. The TGI (HCT-15 colon) was greater than 100 µM, the GI50 (HL-60(TB) leukemia) was 2.95 µM and the TGI (HL-60(TB) leukemia) was 60.9 µM. It also gave a GI50 (HOP-62 NSCLC) of 4.23 µM, a TGI (HOP-62 NSCLC) of 49.3 µM and a GI50 (HOP-92 NSCLC) of 1.35 µM. The TGI (HOP-92 NSCLC) was 9.53 µM, the GI50 (HS 578T breast) was 3.36 µM and the TGI (HS 578T breast) was 30 µM. The GI50 (HT29 colon) was 3.52 µM, the TGI (HT29 colon) was greater than 100 µM and the GI50 (IGROV1 ovarian) was 1.74 µM. It also gave a TGI (IGROV1 ovarian) of 6.6 µM, a GI50 (K-562 leukemia) of 47 µM and a TGI (K-562 leukemia) greater than 100 µM. For the same compound, the GI50 (KM12 colon) was 14.4 µM, the TGI (KM12 colon) was greater than 100 µM and the GI50 (LOX IMVI melanoma) was 4.74 µM. For the same compound, the TGI (LOX IMVI melanoma) was greater than 100 µM, the GI50 (M14 melanoma) was 4.64 µM and the TGI (M14 melanoma) was greater than 100 µM. For the same compound, the GI50 (MALME-3M melanoma) was 1.23 µM, the TGI (MALME-3M melanoma) was 7.15 µM and the GI50 (MCF7 breast) was 1.39 µM. The TGI (MCF7 breast) was greater than 100 µM, the GI50 (MDA-MB-231 breast) was 4.89 µM and the TGI (MDA-MB-231 breast) was 67.9 µM. For the same compound, the GI50 (MDA-MB-435) was 5.71 µM, the TGI (MDA-MB-435) was greater than 100 µM and the GI50 (MOLT-4 leukemia) was 4.15 µM. For the same compound, the TGI (MOLT-4 leukemia) was 74.9 µM, the GI50 (NCI-H226 lung) was 5.2 µM and the TGI (NCI-H226 lung) was greater than 100 µM. The GI50 (NCI-H23 lung) was 6.58 µM, the TGI (NCI-H23 lung) was greater than 100 µM and the GI50 (NCI-H522 lung) was 7.13 µM. It also gave a TGI (NCI-H522 lung) of 88.5 µM, a GI50 (NCI/ADR-RES ovarian) of 44.6 µM and a TGI (NCI/ADR-RES ovarian) greater than 100 µM. The GI50 (OVCAR-3 ovarian) was 13.9 µM, the TGI (OVCAR-3 ovarian) was greater than 100 µM and the GI50 (OVCAR-4 ovarian) was 6.07 µM. It also gave a TGI (OVCAR-4 ovarian) greater than 100 µM, a GI50 (OVCAR-5 ovarian) of 2.74 µM and a TGI (OVCAR-5 ovarian) greater than 100 µM. The GI50 (OVCAR-8 ovarian) was 13.4 µM, the TGI (OVCAR-8 ovarian) was greater than 100 µM and the GI50 (PC-3 prostate) was 3.19 µM. It also gave a TGI (PC-3 prostate) greater than 100 µM, a GI50 (RPMI-8226 leukemia) of 6.36 µM and a TGI (RPMI-8226 leukemia) greater than 100 µM. The GI50 (RXF 393 renal) was 5.51 µM, the TGI (RXF 393 renal) was 36.7 µM and the GI50 (SF-268 CNS) was 9.82 µM. It also gave a TGI (SF-268 CNS) greater than 100 µM, a GI50 (SF-295 CNS) of 5.53 µM and a TGI (SF-295 CNS) of 64.8 µM. For the same compound, the GI50 (SF-539 CNS) was 9.81 µM, the TGI (SF-539 CNS) was 73.3 µM and the GI50 (SK-MEL-2 melanoma) was 5.33 µM. For the same compound, the TGI (SK-MEL-2 melanoma) was 46.8 µM, the GI50 (SK-MEL-28 melanoma) was 5.4 µM and the TGI (SK-MEL-28 melanoma) was greater than 100 µM. For the same compound, the GI50 (SK-MEL-5 melanoma) was 3.95 µM, the TGI (SK-MEL-5 melanoma) was 50.7 µM and the GI50 (SK-OV-3 ovarian) was 1.59 µM. For the same compound, the TGI (SK-OV-3 ovarian) was 7.16 µM, the GI50 (SN12C renal) was 6.66 µM and the TGI (SN12C renal) was greater than 100 µM. It also gave a GI50 (SNB-19 CNS) of 15.4 µM, a TGI (SNB-19 CNS) of 84.5 µM and a GI50 (SNB-75 CNS) of 0.916 µM. It also gave a TGI (SNB-75 CNS) of 15.7 µM, a GI50 (SR leukemia) of 2.85 µM and a TGI (SR leukemia) greater than 100 µM. For the same compound, the GI50 (SW-620 colon) was 10.8 µM, the TGI (SW-620 colon) was greater than 100 µM and the GI50 (T-47D breast) was 0.417 µM. It also gave a TGI (T-47D breast) of 3.52 µM, a GI50 (TK-10 renal) of 2.41 µM and a TGI (TK-10 renal) of 27.5 µM. The GI50 (U251 CNS) was 11.1 µM, the TGI (U251 CNS) was 80.3 µM and the GI50 (UACC-257 melanoma) was 7.8 µM. It also gave a TGI (UACC-257 melanoma) greater than 100 µM, a GI50 (UACC-62 melanoma) of 4.14 µM and a TGI (UACC-62 melanoma) greater than 100 µM. It also gave a GI50 (UO-31 renal) of 2.09 µM and a TGI (UO-31 renal) of 35.6 µM.
